Experimental data published in patent US20190274334A1 (MARS, INCORPORATED, priority 2016, published 2019).
“And” between values parts separate entries of the source, which are not always exact repeats. Identical values can stand only once. Like-named read-outs stand apart in the source and are kept apart here. *1 amine or outer side, *2 acyl side, *3 side chain or, on linkers, in order; H or OH if unused. Where a SMILES comes first, the peptide text is derived from it. [ ]: non-standard residue; d: D form. γGlu = O=C(O)[C@H](CCC(=O)[*:2])N[*:1]; Abu = CC[C@H](N)C(=O)O

Columns and labels:
feline CaSR (f:CaSR) [1] = target: T1, feline CaSR (f:CaSR) (Felis catus, UniProt A0ABI7YY68); assay: cell-based; assay type: cell-based
T1 sequence (A0ABI7YY68 entry or part of it): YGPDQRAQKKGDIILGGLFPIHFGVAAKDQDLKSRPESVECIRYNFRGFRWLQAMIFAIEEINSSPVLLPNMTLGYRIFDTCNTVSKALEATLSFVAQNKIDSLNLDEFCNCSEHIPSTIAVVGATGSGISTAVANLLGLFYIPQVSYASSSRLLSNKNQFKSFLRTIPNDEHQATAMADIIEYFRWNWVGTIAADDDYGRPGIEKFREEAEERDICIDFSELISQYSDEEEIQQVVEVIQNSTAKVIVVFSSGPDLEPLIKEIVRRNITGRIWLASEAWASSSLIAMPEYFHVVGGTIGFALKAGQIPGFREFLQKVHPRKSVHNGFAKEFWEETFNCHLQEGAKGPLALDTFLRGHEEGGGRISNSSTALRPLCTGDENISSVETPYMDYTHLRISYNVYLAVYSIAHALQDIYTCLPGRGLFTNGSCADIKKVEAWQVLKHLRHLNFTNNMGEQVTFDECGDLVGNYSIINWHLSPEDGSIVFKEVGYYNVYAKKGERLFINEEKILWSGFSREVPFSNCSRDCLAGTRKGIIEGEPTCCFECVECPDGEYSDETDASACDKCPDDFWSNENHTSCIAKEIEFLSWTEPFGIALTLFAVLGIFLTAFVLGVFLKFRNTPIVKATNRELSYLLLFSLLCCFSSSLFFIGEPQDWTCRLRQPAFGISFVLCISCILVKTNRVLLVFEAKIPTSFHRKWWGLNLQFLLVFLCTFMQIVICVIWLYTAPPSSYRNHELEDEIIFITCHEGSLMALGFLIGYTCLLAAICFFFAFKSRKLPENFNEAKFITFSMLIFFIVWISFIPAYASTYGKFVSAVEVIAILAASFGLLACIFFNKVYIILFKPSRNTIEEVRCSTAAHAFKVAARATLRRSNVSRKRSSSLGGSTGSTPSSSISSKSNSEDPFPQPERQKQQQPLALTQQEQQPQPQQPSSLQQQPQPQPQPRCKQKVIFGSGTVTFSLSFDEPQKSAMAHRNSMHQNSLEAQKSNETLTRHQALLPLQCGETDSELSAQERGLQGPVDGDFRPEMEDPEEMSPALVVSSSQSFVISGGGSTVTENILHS
feline CaSR (f:CaSR) [2] = target: T1, feline CaSR (f:CaSR); assay: in vitro PAM testing of amino acids on feline CaSR, single-injection protocol, shift of calcium EC50; assay type: cell-based; details: for EC50: CaCl2 alone, control of the same experiment, read-out: EC50 of Ca^2+ before the shift (without amino acid)
Procedure: Methods: HEK293TRex/nat-Clytin cells that inducibly express a feline CaSR (f:CaSR) transgene construct was used to screen 30 amino acids to identify compounds that modulate f:CaSR activity. […] The HEK293 cells were seeded at 10,000 cells/well in 384 MTP. 24 hours after cell seeding, cells were loaded with 10 μm coelenterazine in an assay buffer (20 μL/well) for 4 h at room temperature. […] CaCl2 alone was used as a control.
PAM mode (single-injection): Test compound (6× concentrated) and CaCl2 (6× concentrated) were directly mixed 1:1 on the compound plate to get a 3× concentrated working solution of each test compound and control. 10 μl/well of the test compound or control working mixture was injected, and luminescence (i.e., PAM activity) was measured.

[3] = tested on: feline umami (T1R1/T1R3) receptor; details: cited from earlier work
Human CaSR = target: T2, Human CaSR (Homo sapiens, UniProt P41180); details: Yes/No; cited from earlier work
T2 sequence (P41180 20-1078): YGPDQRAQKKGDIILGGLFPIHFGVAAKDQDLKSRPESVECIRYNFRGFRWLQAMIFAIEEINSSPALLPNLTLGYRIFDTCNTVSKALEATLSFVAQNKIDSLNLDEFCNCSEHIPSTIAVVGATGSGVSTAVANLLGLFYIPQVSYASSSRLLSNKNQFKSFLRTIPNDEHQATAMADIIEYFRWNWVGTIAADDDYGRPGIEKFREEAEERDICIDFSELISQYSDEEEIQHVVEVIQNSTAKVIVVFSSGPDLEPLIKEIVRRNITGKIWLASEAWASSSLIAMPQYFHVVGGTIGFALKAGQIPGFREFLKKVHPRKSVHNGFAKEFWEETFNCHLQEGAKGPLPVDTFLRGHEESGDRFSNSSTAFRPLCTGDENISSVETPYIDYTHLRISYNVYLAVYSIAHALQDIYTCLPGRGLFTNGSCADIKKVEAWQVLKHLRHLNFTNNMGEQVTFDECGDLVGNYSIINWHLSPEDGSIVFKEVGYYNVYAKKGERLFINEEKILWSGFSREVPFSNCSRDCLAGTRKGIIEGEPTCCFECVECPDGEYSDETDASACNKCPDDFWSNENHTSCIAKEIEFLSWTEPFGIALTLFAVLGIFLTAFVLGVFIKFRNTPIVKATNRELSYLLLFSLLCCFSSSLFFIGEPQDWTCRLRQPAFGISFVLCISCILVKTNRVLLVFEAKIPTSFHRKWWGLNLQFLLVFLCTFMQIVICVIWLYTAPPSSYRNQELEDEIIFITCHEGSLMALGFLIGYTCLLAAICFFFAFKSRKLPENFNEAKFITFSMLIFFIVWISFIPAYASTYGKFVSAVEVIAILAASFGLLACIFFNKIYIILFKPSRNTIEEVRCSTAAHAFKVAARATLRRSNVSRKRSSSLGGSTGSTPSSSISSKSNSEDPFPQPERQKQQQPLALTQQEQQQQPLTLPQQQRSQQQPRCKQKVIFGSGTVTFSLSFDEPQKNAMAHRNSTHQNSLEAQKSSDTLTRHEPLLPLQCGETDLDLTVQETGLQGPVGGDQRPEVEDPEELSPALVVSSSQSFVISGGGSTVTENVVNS

[4] = agonist mode, read-out: EC50 (Agonist)
[5] = double-injection protocol, agonist mode and PAM mode
[6] = PAM mode, CaCl2 injected at EC20, read-out: EC50 (PAM)

Compound: [Ca] [Calcium]
- EC50 (feline CaSR (f:CaSR) [1]; [4]): 1620 µM
- Activity Type (feline CaSR (f:CaSR) [1]; [5]): Agonist
- EC50 (feline CaSR (f:CaSR) [2]; listed as Ca2^+): 1.3 mM
- EC50 (feline CaSR (f:CaSR) [2]; listed as Ca^2+): 1.3 mM and 1.5 mM

Compound: N=C(N)NCCC[C@H](N)C(=O)O [L-Arginine]
- Activity Type (feline CaSR (f:CaSR) [2]): PAM EC50 of Ca^2+ moved from 1.5 mM to 0.72 mM in presence of 10 mM L-Arginine

Compound: NCCCC[C@H](N)C(=O)O [L-Lysine]
- Activity Type (feline CaSR (f:CaSR) [2]): PAM EC50 of Ca^2+ moved from 1.5 mM to 0.72 mM in presence of 10 mM L-Lysine

Compound: N[C@@H](Cc1ccccc1)C(=O)O [L-Phenylalanine]
- Feline CaSR agonist (feline CaSR (f:CaSR) [1]; Yes/No): do not activate
- Activity Type (feline CaSR (f:CaSR) [2]; single-injection PAM mode): PAMs and PAM
- Comments: Umami-active for cats [3]: umami-active

Compound: N[C@@H](Cc1c[nH]c2ccccc12)C(=O)O [L-Tryptophan]
- Feline CaSR agonist (feline CaSR (f:CaSR) [1]; Yes/No): do not activate
- Activity Type (feline CaSR (f:CaSR) [2]; single-injection PAM mode): PAMs and PAM
- Comments: Umami-active for cats [3]: umami-active

Compound: C[C@H](N)C(=O)O [L-alanine]
- Human CaSR agonist (Human CaSR): Yes
- Feline CaSR agonist (feline CaSR (f:CaSR) [1]; Yes/No): do not activate and No
- Comments: Umami-active for cats [3]: Umami-active

Compound: N[C@@H](Cc1c[nH]cn1)C(=O)O [L-histidine]
- Human CaSR agonist (Human CaSR): Yes
- Feline CaSR agonist (feline CaSR (f:CaSR) [1]; Yes/No): do not activate and No
- Comments: Umami-active for cats [3]: Umami-active

Compound: COc1ccc(C(CCNC(C)c2ccc(Cl)cc2)CCC(C)C)cc1 (stereo not shown) [N-(1-(4-chlorophenyl)ethyl)-3-(4-methoxyphenyl)-6-methylheptan-1-amine]
- EC50 (feline CaSR (f:CaSR) [1]; [6]): 115 µM
- Activity Type (feline CaSR (f:CaSR) [1]; [5]): PAM

Compound: COc1ccccc1C(CCNC(C)c1ccc(Cl)cc1)c1ccco1 (stereo not shown) [N-(1-(4-chlorophenyl)ethyl)-3-(furan-2-yl)-3-(2-methoxyphenyl)propan-1-amine]
- EC50 (feline CaSR (f:CaSR) [1]; [6]): 1.41 µM
- Activity Type (feline CaSR (f:CaSR) [1]; [5]): PAM

Compound: Cc1ccc(C(CCNC(C)c2ccc(Cl)cc2)c2ccco2)cc1 (stereo not shown) [N-(1-(4-chlorophenyl)ethyl)-3-(furan-2-yl)-3-(p-tolyl)propan-1-amine]
- EC50 (feline CaSR (f:CaSR) [1]; [6]): 3.68 µM
- Activity Type (feline CaSR (f:CaSR) [1]; [5]): PAM

Compound: CC(NCCC(Cc1ccccc1)c1ccco1)c1ccc(Cl)cc1 (stereo not shown) [N-(1-(4-chlorophenyl)ethyl)-3-(furan-2-yl)-4-phenylbutan-1-amine]
- EC50 (feline CaSR (f:CaSR) [1]; [6]): 4 µM
- Activity Type (feline CaSR (f:CaSR) [1]; [5]): PAM

Compound: CC(NCC1Cc2ccccc2O1)c1ccc2ccccc2n1 (stereo not shown) [N-((2,3-dihydrobenzofuran-2-yl)methyl)-1-(quinolin-2-yl)ethanamine]
- EC50 (feline CaSR (f:CaSR) [1]; [6]): 9.01 µM
- Activity Type (feline CaSR (f:CaSR) [1]; [5]): PAM

Compound: NC[C@@H]1O[C@H](O[C@H]2[C@@H](O)[C@H](O[C@@H]3[C@@H](O)[C@H](N)C[C@H](N)[C@H]3O[C@H]3O[C@H](CN)[C@@H](O)[C@H](O)[C@H]3N)O[C@@H]2CO)[C@H](N)[C@@H](O)[C@@H]1O [Neomycin, reference compound]
- Activity Type (feline CaSR (f:CaSR) [1]): Agonist EC50 1.87 mM
- EC50 (feline CaSR (f:CaSR) [1]): 1870 µM

Compound: N[C@@H](Cc1ccc(OP(=O)(O)O)cc1)C(=O)O [O-phospho-L-tyrosine]
- Activity Type (feline CaSR (f:CaSR) [1]; [5]): Agonist

Compound: CC[C@H](NC(=O)CC[C@H](N)C(=O)O)C(=O)NCC(=O)O [Ophthalmic Acid] (γGlu-[Abu]-Gly-OH)
- EC50 (feline CaSR (f:CaSR) [1]; [4]): 2660 µM
- Activity Type (feline CaSR (f:CaSR) [1]; [5]): Agonist

Compound: NC[C@@H]1O[C@H](O[C@H]2[C@@H](O)[C@H](O[C@@H]3[C@@H](O)[C@H](N)C[C@H](N)[C@H]3O[C@H]3O[C@H](CO)[C@@H](O)[C@H](O)[C@H]3N)O[C@@H]2CO)[C@H](N)[C@@H](O)[C@@H]1O [Paromomycin, reference compound]
- Activity Type (feline CaSR (f:CaSR) [1]; [5]): Agonist

Compound: [Pr] [Praseodymium]
- EC50 (feline CaSR (f:CaSR) [1]; [4]): 398 µM
- Activity Type (feline CaSR (f:CaSR) [1]; [5]): Agonist

Compound: NCCCCN [Putrescine]
- Human CaSR agonist (Human CaSR): Yes
- Feline CaSR agonist (feline CaSR (f:CaSR) [1]): No

Compound: NC[C@H]1O[C@H](O[C@H]2[C@H](O[C@@H]3O[C@H](CO)[C@@H](O)[C@H]3O)[C@@H](O)[C@H](N)C[C@@H]2N)[C@H](N)[C@@H](O)[C@@H]1O [Ribostamycin, reference compound]
- Activity Type (feline CaSR (f:CaSR) [1]; [5]): Agonist

Compound: N[C@@H](CCC(=O)N[C@@H](CSCCO)C(=O)NCC(=O)O)C(=O)O [S-(2-Hydroxyethyl)glutathione]
- Activity Type (feline CaSR (f:CaSR) [1]; [5]): Agonist

Compound: CSC[C@H](NC(=O)CC[C@H](N)C(=O)O)C(=O)NCC(=O)O [S-Methylglutathione]
- Activity Type (feline CaSR (f:CaSR) [1]; [5]): Agonist

Compound: C[Se]C[C@H](N)C(=O)O [Se-(Methyl)selenocysteine]
- EC50 (feline CaSR (f:CaSR) [1]; [4]): 4470 µM
- Activity Type (feline CaSR (f:CaSR) [1]; [5]): Agonist

Compound: CN[C@@H]1[C@@H](O)[C@@H](O[C@@H]2[C@@H](O)[C@H](O[C@H]3OC(CN)=CC[C@H]3N)[C@@H](N)C[C@H]2N)OC[C@]1(C)O [Sisomicin, reference compound]
- Activity Type (feline CaSR (f:CaSR) [1]; [5]): Agonist

Compound: NCCCCNCCCN [Spermidine]
- Activity Type (feline CaSR (f:CaSR) [1]; [5]): Agonist

Compound: NCCCNCCCCNCCCN [Spermine]
- Activity Type (feline CaSR (f:CaSR) [1]): Agonist

Compound: [Sr+2] [Strontium]
- Activity Type (feline CaSR (f:CaSR) [1]; [5]): Agonist

Compound: COC(=O)C(NC1CCc2c(F)cccc21)c1cccc(C#N)c1 (stereo not shown) [methyl 2-(3-cyanophenyl)-2-((4-fluoro-2,3-dihydro-1H-inden-1-yl)amino)acetate]
- EC50 (feline CaSR (f:CaSR) [1]; [6]): 58.9 µM
- Activity Type (feline CaSR (f:CaSR) [1]; [5]): PAM

Compound: NC(CCC(=O)NC(Cc1c[nH]c2ccccc12)C(=O)O)C(=O)O [γ-D-Glu-Trp, H-gamma-D-Glu-Trp-OH]
- EC50 (feline CaSR (f:CaSR) [1]; [4]): 4200 µM
- Activity Type (feline CaSR (f:CaSR) [1]; [5]): Agonist

Compound: C[C@H](NC(=O)CC[C@H](N)C(=O)O)C(=O)O [γ-Glu-Ala, L-gamma-Glutamyl-L-alanine]
- Activity Type (feline CaSR (f:CaSR) [1]; [5]): Agonist

Compound: N[C@@H](CCC(=O)N[C@@H](Cc1ccccc1)C(=O)O)C(=O)O [γ-Glu-Phe]
- EC50 (feline CaSR (f:CaSR) [1]; [4]): 2320 µM
- Activity Type (feline CaSR (f:CaSR) [1]; [5]): Agonist

Compound: N[C@@H](CCC(=O)N[C@@H](Cc1ccc(O)cc1)C(=O)O)C(=O)O [γ-Glu-Tyr]
- Activity Type (feline CaSR (f:CaSR) [1]; [5]): Agonist

Compound: CC(C)[C@H](NC(=O)CC[C@H](N)C(=O)O)C(=O)NCC(=O)O [γ-Glu-Val-Gly]
- EC50 (feline CaSR (f:CaSR) [1]; [4]): 4220 µM
- Activity Type (feline CaSR (f:CaSR) [1]; [5]): Agonist

Compound: CC(C)[C@H](NC(=O)CC[C@H](N)C(=O)O)C(=O)O [γ-Glu-Val]
- Activity Type (feline CaSR (f:CaSR) [1]; [5]): Agonist

Compound: Geneticin [reference compound]
- Activity Type (feline CaSR (f:CaSR) [1]; [5]): Agonist

Compound: Poly-L-arginine
- Activity Type (feline CaSR (f:CaSR) [1]): Agonist EC50 1.01 uM
- EC50 (feline CaSR (f:CaSR) [1]; read-out: EC50 (Agonist)): 1.01 µM

Compound: Poly-L-lysine
- Activity Type (feline CaSR (f:CaSR) [1]): Agonist

Compound: Poly-L-ornithine
- Activity Type (feline CaSR (f:CaSR) [1]): Agonist EC50 0.240 mM
- EC50 (feline CaSR (f:CaSR) [1]; read-out: EC50 (Agonist)): 240 µM

Compound: Terbium
- EC50 (feline CaSR (f:CaSR) [1]; [4]): 175 µM
- Activity Type (feline CaSR (f:CaSR) [1]; [5]): Agonist

Compound: Tobramycin [reference compound]
- Activity Type (feline CaSR (f:CaSR) [1]; [5]): PAM
